Measured values reported in ChEMBL document CHEMBL1201862, “PubChem BioAssay data set” (2004).
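These data come from cells grown in 96-well plates and exposed to compound for 48 hours at five concentrations. Abbreviation: GI50, concentration required for 50% inhibition of growth.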 The source made the active and inactive calls. Cut-off read from the data, not from the text of the source: active = GI50 up to about 1.1 µM and inactive = higher.

How the values were obtained:
Assay in all cases: NCI-60 cell line screen, 48 h
[1] = system: NCI-H460
[2] = system: NCI-H226
[3] = system: CCRF-CEM
[4] = system: SN12C
[5] = system: Malme-3M
[6] = system: COLO 205
[7] = system: SNB-19
[8] = system: SK-MEL-28
[9] = system: HCT-116
[10] = system: HOP-62
[11] = system: M14
[12] = system: UACC-257
[13] = system: ACHN
[14] = system: U-251
[15] = system: RPMI-8226
[16] = system: MOLT-4
[17] = system: SR
[18] = system: HL-60
[19] = system: UACC-62
[20] = system: SK-MEL-2

SMILES | GI50 [1] | GI50 [2] | GI50 [3] | GI50 [4] | GI50 [5] | GI50 [6] | GI50 [7] | GI50 [8] | GI50 [9] | GI50 [10] | GI50 [11] | GI50 [12] | GI50 [13] | GI50 [14] | GI50 [15] | GI50 [16] | GI50 [17] | GI50 [18] | GI50 [19] | GI50 [20]
Cc1nc(N/N=C/c2ccccc2Cl)[nH]c(=O)c1CCO | 80 µM (inactive) | > 100 µM (inactive) | > 100 µM (inactive) | 47.4 µM (inactive) | 22 µM (inactive) | > 100 µM (inactive) | 51.6 µM (inactive) | 73.8 µM (inactive) | 38.8 µM (inactive) | 21.1 µM (inactive) | 87.7 µM (inactive) | > 100 µM (inactive) | > 100 µM (inactive) | 49.3 µM (inactive) | 25.9 µM (inactive) | > 100 µM (inactive) | > 100 µM (inactive) | > 100 µM (inactive) | 34.4 µM (inactive) | 
C=C1C(=O)C23C(O)CC4C(C)(C)CCC(O)C4(C)C2CC(OC(C)=O)C1[C@H]3O (stereo partly drawn) | 4.25 µM (inactive) | 9.31 µM (inactive) | 0.442 µM (active) | 3.15 µM (inactive) | 3.37 µM (inactive) | 1.98 µM (inactive) | 8.99 µM (inactive) | 3.39 µM (inactive) | 2 µM (inactive) | 14.7 µM (inactive) | 2.82 µM (inactive) | 3.28 µM (inactive) | 4.12 µM (inactive) | 8.81 µM (inactive) | 0.869 µM (active) | 1.28 µM (inactive) | 1.18 µM (inactive) | 1.26 µM (inactive) |  | 2.55 µM (inactive)
Cc1ccc(S(=O)(=O)n2ccc(-c3ccc4ccn(S(=O)(=O)c5ccc(C)cc5)c4c3)c2)cc1 |  | > 100 µM (inactive) | > 100 µM (inactive) | > 100 µM (inactive) | > 100 µM (inactive) | > 100 µM (inactive) | 41 µM (inactive) |  | > 100 µM (inactive) | > 100 µM (inactive) | > 100 µM (inactive) | > 100 µM (inactive) | > 100 µM (inactive) | > 100 µM (inactive) | > 100 µM (inactive) | > 100 µM (inactive) | > 100 µM (inactive) | > 100 µM (inactive) | > 100 µM (inactive) | > 100 µM (inactive)
O=[N+]([O-])c1ccc(/C=C(/c2ccc([N+](=O)[O-])o2)S(=O)(=O)c2ccccc2)cc1 | > 100 µM (inactive) | 13.4 µM (inactive) |  |  | 25.2 µM (inactive) | 47.6 µM (inactive) | 73.5 µM (inactive) | > 100 µM (inactive) | 30.9 µM (inactive) | 50.6 µM (inactive) | 56.2 µM (inactive) | 29.4 µM (inactive) | > 100 µM (inactive) | 73.5 µM (inactive) | 13.7 µM (inactive) | 16.8 µM (inactive) | 16.4 µM (inactive) | 17.5 µM (inactive) | 22.2 µM (inactive) | > 100 µM (inactive)
CCCCCCOP(=O)(OCCCCCC)OC(C(=O)OC)C(F)(F)F (stereo not drawn) |  | > 100 µM (inactive) | > 100 µM (inactive) | > 100 µM (inactive) | > 100 µM (inactive) | > 100 µM (inactive) | > 100 µM (inactive) | > 100 µM (inactive) | > 100 µM (inactive) | > 100 µM (inactive) | > 100 µM (inactive) | > 100 µM (inactive) | > 100 µM (inactive) | > 100 µM (inactive) | > 100 µM (inactive) | > 100 µM (inactive) | > 100 µM (inactive) | > 100 µM (inactive) | > 100 µM (inactive) | > 100 µM (inactive)
COC(=O)OC[C@H]1O[C@@H](n2cc(C)c(=O)[nH]c2=O)CC1OC(=O)OC (stereo partly drawn) | > 100 µM (inactive) | > 100 µM (inactive) | > 100 µM (inactive) | > 100 µM (inactive) | > 100 µM (inactive) | > 100 µM (inactive) | > 100 µM (inactive) | > 100 µM (inactive) |  | > 100 µM (inactive) | > 100 µM (inactive) |  | > 100 µM (inactive) | > 100 µM (inactive) | > 100 µM (inactive) | > 100 µM (inactive) | 61.7 µM (inactive) | > 100 µM (inactive) | > 100 µM (inactive) | > 100 µM (inactive)
O=c1[nH]c2cccccc-2c1-c1nc2ccccc2[nH]1 | 7.01 µM (inactive) | 11.1 µM (inactive) | 25.5 µM (inactive) | 31.6 µM (inactive) | 21.3 µM (inactive) | > 100 µM (inactive) | 21.2 µM (inactive) | 20.3 µM (inactive) | 19.8 µM (inactive) | 39.8 µM (inactive) | 44.3 µM (inactive) | > 100 µM (inactive) | 14.1 µM (inactive) | 21.8 µM (inactive) | 28.5 µM (inactive) |  | 34.2 µM (inactive) | 36.6 µM (inactive) | 17.9 µM (inactive) | 24.3 µM (inactive)
CNC(=O)OCc1nc(N=[N+]=[N-])n(C)c1COC(=O)NC | 29.6 µM (inactive) | > 100 µM (inactive) | 32.1 µM (inactive) | 55.7 µM (inactive) | 55.7 µM (inactive) | 32.8 µM (inactive) |  | > 100 µM (inactive) | 46.2 µM (inactive) | 52.7 µM (inactive) |  | > 100 µM (inactive) | 33.4 µM (inactive) | 31.3 µM (inactive) | 28.6 µM (inactive) | 26 µM (inactive) | 21.3 µM (inactive) | 17.5 µM (inactive) |  | 26.7 µM (inactive)
CCCCn1c(-c2ccccc2)cs/c1=N\N=C1C=C(C(C)(C)C)C(=O)C(C(C)(C)C)=C1 | > 100 µM (inactive) | > 100 µM (inactive) | > 100 µM (inactive) | > 100 µM (inactive) | > 100 µM (inactive) | > 100 µM (inactive) | > 100 µM (inactive) |  | > 100 µM (inactive) | > 100 µM (inactive) | > 100 µM (inactive) | > 100 µM (inactive) | > 100 µM (inactive) | > 100 µM (inactive) |  | > 100 µM (inactive) | > 100 µM (inactive) | > 100 µM (inactive) | > 100 µM (inactive) | > 100 µM (inactive)
COc1cc(Cc2cc3c(c(C(=O)O)c2Br)OCO3)cc(OC)c1OC | > 100 µM (inactive) | > 100 µM (inactive) | 34.6 µM (inactive) | > 100 µM (inactive) | 57.8 µM (inactive) | > 100 µM (inactive) | > 100 µM (inactive) | > 100 µM (inactive) | 37 µM (inactive) | > 100 µM (inactive) | 70.8 µM (inactive) | > 100 µM (inactive) | > 100 µM (inactive) | > 100 µM (inactive) |  | 56.8 µM (inactive) | 52.6 µM (inactive) | 21.7 µM (inactive) | 33.5 µM (inactive) | > 100 µM (inactive)
CCSCC(=O)N1CCc2c([nH]c3ccccc23)C1=O | > 100 µM (inactive) | > 100 µM (inactive) | > 100 µM (inactive) | > 100 µM (inactive) | > 100 µM (inactive) | > 100 µM (inactive) | > 100 µM (inactive) | > 100 µM (inactive) | > 100 µM (inactive) | > 100 µM (inactive) | > 100 µM (inactive) | 71.4 µM (inactive) | > 100 µM (inactive) | > 100 µM (inactive) |  | > 100 µM (inactive) | > 100 µM (inactive) | > 100 µM (inactive) | 97.5 µM (inactive) | > 100 µM (inactive)
Cc1cccc2c(O)cc(=O)oc12 | > 100 µM (inactive) | > 100 µM (inactive) | > 100 µM (inactive) | > 100 µM (inactive) | > 100 µM (inactive) |  | > 100 µM (inactive) | > 100 µM (inactive) | > 100 µM (inactive) | > 100 µM (inactive) | > 100 µM (inactive) | > 100 µM (inactive) | > 100 µM (inactive) | > 100 µM (inactive) | > 100 µM (inactive) | > 100 µM (inactive) | > 100 µM (inactive) | > 100 µM (inactive) | > 100 µM (inactive) | 
Cc1cn(C2CC(N/C(=N/C#N)NCC3OC(n4cnc5c(N)ncnc54)CC3O)C(CO)O2)c(=O)[nH]c1=O (stereo not drawn) | > 100 µM (inactive) | > 100 µM (inactive) | > 100 µM (inactive) | > 100 µM (inactive) | > 100 µM (inactive) | > 100 µM (inactive) | > 100 µM (inactive) | > 100 µM (inactive) | > 100 µM (inactive) | > 100 µM (inactive) | > 100 µM (inactive) | > 100 µM (inactive) | > 100 µM (inactive) | > 100 µM (inactive) |  | > 100 µM (inactive) | > 100 µM (inactive) | 77.6 µM (inactive) | > 100 µM (inactive) | > 100 µM (inactive)
O=C(O)C12C=CC(C1)c1ccccc12 (stereo not drawn) | > 100 µM (inactive) | > 100 µM (inactive) | > 100 µM (inactive) | > 100 µM (inactive) | > 100 µM (inactive) | > 100 µM (inactive) | > 100 µM (inactive) | > 100 µM (inactive) | > 100 µM (inactive) | > 100 µM (inactive) | > 100 µM (inactive) | > 100 µM (inactive) | > 100 µM (inactive) | > 100 µM (inactive) | > 100 µM (inactive) | > 100 µM (inactive) | > 100 µM (inactive) | > 100 µM (inactive) | > 100 µM (inactive) | 
O=C1CSC(c2cccc(Oc3ccccc3)c2)N1c1cc(Cl)ccc1Cl (stereo not drawn) | 20.1 µM (inactive) | 23.4 µM (inactive) | 17.2 µM (inactive) | 19.5 µM (inactive) | 27.5 µM (inactive) | 36.7 µM (inactive) | 22.8 µM (inactive) | 29.5 µM (inactive) | 17.3 µM (inactive) | 21.9 µM (inactive) | 22.2 µM (inactive) | 22.7 µM (inactive) | 24 µM (inactive) | 18.4 µM (inactive) |  | 22.6 µM (inactive) | 14.9 µM (inactive) | 27.3 µM (inactive) | 16 µM (inactive) | 18.7 µM (inactive)
